Assay results reported in PubChem BioAssay AID856 (The Scripps Research Institute Molecular Screening Center, 2007).
“And” between values parts separate entries of the source, which are not always exact repeats. Identical values can stand only once. The source made the active and inactive calls. How the calls were made is not given here.

Tested on: CRE-bla reporter cells, beta-lactamase FRET, antagonist mode
Test: inhibition of CRE beta-lactamase reporter – cell-based, beta-lactamase FRET, counter-screen for S1P2 antagonist project, dose response (AID 856)

| SMILES | IC50 |
| --- | --- |
| Cn1c(-c2c(N)n(C3CCCC3)c3nc4ccccc4nc23)nc2ccccc21 | 2370 nM |
| CCOC(=O)C1C(=O)CC(C)(O)C(C(=O)OCC)C1c1ccccc1 (configuration not stated) | > 50000 nM (inactive) |
| CCN(C(=O)c1ccc(C(C)(C)C)cc1)c1nnc(Cn2nnc3ccccc32)s1 | 1800 nM |
| O=C(O)c1sc2cc(C(F)(F)F)cnc2c1-c1ccccc1 | > 40000 nM (inactive) |
| O=S(=O)(C/C(=C/CO)S(=O)(=O)c1ccccc1)c1ccccc1 | 3710 nM |
| COc1ccccc1C(=O)Nc1nc(-c2ccc(S(=O)(=O)N3CCOCC3)cc2)cs1 | 2250 nM |
| Cc1nn(-c2ccccc2)c2c1C(c1ccc(O)c(O)c1)N1C(=N2)C(Nc2ccccc2)=Nc2ccccc21 (configuration not stated) | 10500 nM (inactive) |
| COc1ccc(OC)c(NC(=O)CSc2ncnc3c2cnn3-c2ccccc2Cl)c1 | 640 nM |
| O=C(C#Cc1cccc([N+](=O)[O-])c1)c1ccccc1 | 2270 nM |
| N#C/C(=C/c1ccc(N2CCCCCC2)o1)c1ccc(F)cc1 | 9670 nM |
| CN(C)C=NC(=O)c1sc2cc(C(F)(F)F)cnc2c1-c1cccs1 | > 40000 nM (inactive) |
| O=C(O)c1sc2cc(C(F)(F)F)cnc2c1-c1cccs1 | > 40000 nM (inactive) |
| COc1ccc(NC(=O)/C(Cl)=C(/Cl)S(=O)(=O)Cc2ccc(C)cc2)cn1 | 1430 nM |
| Cn1c(-c2c(N)n(CCCc3ccccc3)c3nc4ccccc4nc23)nc2ccccc21 | > 50000 nM (inactive) |
| CC(=O)Nc1cc(OC(C)=O)c2nonc2c1OC(C)=O | 3340 nM |
| CN(C)C=NC(=O)c1sc2cc(C(F)(F)F)cnc2c1-c1ccccc1 | > 40000 nM (inactive) |
| COC(=O)C1CN(C#N)N(c2ccc(Cl)cc2)C12c1ccccc1-c1ccccc12 (configuration not stated) | 607 nM |
| N#CC(c1cccc(Cl)c1)c1ccc2c(C(F)(F)F)cc(C(F)(F)F)nc2n1 (configuration not stated) | 90 nM |
| COc1cccc(-c2nnc3n2N=C(C(C)(C)C)CS3)c1 | 1070 nM |
| COc1ccc(NC(=O)/C(Cl)=C(/Cl)S(=O)Cc2ccc(C)cc2)cn1 (configuration not stated) | 752 nM |
| COc1ccc2c(c1)[nH]c1c(N3CCN(Cc4ccc5c(c4)OCO5)CC3)ncnc12 | 1400 nM |
| Cc1ccc(-c2nn(-c3ccccc3)cc2/C=N/NC(=O)c2ccc(Br)o2)cc1 | 1820 nM |
| O=C(Nc1ccc(S(=O)(=O)N2CCOCC2)cc1)c1ccc(CN2CCc3ccccc3C2)cc1 | 773 nM |
| CCCC(=O)N1CCN(c2ccc(NC(=O)c3cc4ccccc4o3)cc2Cl)CC1 | 2950 nM |
| CCn1c(=O)c(C(=O)Nc2nc3ccccc3[nH]2)c(O)c2ccccc21 | 29100 nM (inactive) |
| COC(=O)c1sc2cc(C(F)(F)F)cnc2c1-c1cccnc1 | > 40000 nM (inactive) |

| SMILES | IC50 |
| --- | --- |
| Cc1nc(-c2cccs2)sc1C(=O)Nc1ccc(F)cc1 | > 40000 nM (inactive) |
| Nc1nc(Cl)cc(N2CCC(c3cc(-c4ccc(Cl)cc4)n[nH]3)CC2)n1 | 1490 nM |
| COC(=O)c1sc2cc(C(F)(F)F)cnc2c1-c1ccccn1 | > 40000 nM (inactive) |
| O=C(O)c1sc2cc(C(F)(F)F)cnc2c1-c1ccco1 | > 40000 nM (inactive) |
| CCN1/C(=C\C=C\C2=[N+](CC)c3ccccc3C2(C)C)C(C)(C)c2ccccc21 | 64 nM |
| CCCCCCCCCCn1c2c(c(=N)c3c1CCC3)CCC2 | 333 nM |
| O=C(O)c1sc2cc(C(F)(F)F)cnc2c1-c1cccnc1 | > 40000 nM (inactive) |
| CCCCCCCCCn1c2c(c(=N)c3c1CCC3)CCC2 | 459 nM |
| CCOC(=O)N1CCN(C(=O)CSCC(=O)Nc2nc(-c3ccc(-c4ccccc4)cc3)cs2)CC1 | 873 nM |
| CC1=C/C(=N\OS(=O)(=O)c2ccccc2)C=CC1=O | 2920 nM |
| Cc1cccc(NC2=Nc3ccccc3N3C2=Nc2c(c(C)nn2-c2ccccc2)C3c2ccc(O)c(O)c2)c1 (configuration not stated) | 8000 nM |
| O=C(NC(Nc1nc2ccc([N+](=O)[O-])cc2s1)(C(F)(F)F)C(F)(F)F)c1ccccc1 | 101 nM |
| Cc1ccsc1C(=O)Nc1ccc(F)cc1 | > 40000 nM (inactive) |
| CC1=C(C)/C(=N\OS(=O)(=O)c2ccccc2)C=CC1=O | 2650 nM |
| O=C(Nc1ccc(F)cc1)c1sc(-c2ccccc2)nc1C(F)(F)F | > 40000 nM (inactive) |
| CC1=C/C(=N\OS(=O)(=O)c2ccccc2)C(C)=CC1=O | 2390 nM |
| COC(=O)c1sc2cc(C(F)(F)F)cnc2c1-c1ccccc1 | > 40000 nM (inactive) |
| O=C(Nc1ccc(F)cc1)c1sc2cc(C(F)(F)F)cnc2c1-c1cccs1 | > 50 µM (inactive) and > 40 µM (inactive) |
| COc1ccc(NC(=O)/C(Cl)=C(/Cl)S(=O)Cc2ccccc2)cn1 (configuration not stated) | 1280 nM |
| Cn1c2c(c(=O)n(C)c1=O)C(C(F)(F)F)(C(F)(F)F)N=C(c1ccc(Cl)cc1)N2 | 1200 nM |
| O=C(OCn1ncc(Cl)c(Cl)c1=O)c1ccccc1Cl | 2580 nM |
| CCN1/C(=C/c2ccc3ccccc3[n+]2CC)C=Cc2ccccc21 | 1080 nM |
| Cc1ccc2[nH]c3c(N4CCc5ccccc5C4)ncnc3c2c1 | 569 nM |
| Cc1nc2c(=O)n(C)c(=O)nc-2n(C)n1 | 1270 nM |
| O=C(OCn1ncc(Cl)c(Cl)c1=O)c1ccc(F)cc1 | 3810 nM |
| Fc1ccc(-n2nnnc2-c2cnc(-c3cccs3)nc2C(F)(F)F)cc1 | 2920 nM |

| SMILES | IC50 |
| --- | --- |
| FC(F)(F)c1cnc2c(-c3cccs3)csc2c1 | > 40000 nM (inactive) |
| COc1ccc(CS(=O)(=O)/C(Cl)=C(/Cl)C(=O)Nc2ccc(OC)nc2)cc1 | 1840 nM |
| FC(F)(F)c1cnc2c(-c3cccs3)c(-c3ncn[nH]3)sc2c1 | > 40000 nM (inactive) |
| CCCCS(=O)(=O)/C=C\C=C/S(=O)(=O)CCCC | 1960 nM |
| NC(=O)c1sc2cc(C(F)(F)F)cnc2c1-c1cccs1 | > 40000 nM (inactive) |
| CCN(CC)c1ccc2c(Cl)c(Br)c(=O)oc2c1 | 4370 nM |
| Cc1ccc(-n2c(-c3ccc(Br)cc3)c[n+]3c2CCc2ccc4cccnc4c2-3)cc1 | 1490 nM |
| Cc1ccc2[nH]c3c(N4CCCCCC4)ncnc3c2c1 | 1810 nM |
| O=C(O)c1sc2cc(C(F)(F)F)cnc2c1-c1ccccn1 | > 40000 nM (inactive) |
| CCC(NC(=O)Nc1nnc(C(F)(F)F)s1)(C(F)(F)F)C(F)(F)F | 1260 nM |
| COC(=O)c1sc2cc(C(F)(F)F)cnc2c1-c1cccs1 | > 40000 nM (inactive) |
| Cc1n[nH]c(C)c1N1C(=O)c2cccc3c(Br)ccc(c23)C1=O | 5750 nM |
| Cc1ccc(C(=O)OCn2ncc(Cl)c(Cl)c2=O)cc1 | 3080 nM |
| O=S1(=O)C=C(Sc2nc3cc(Cl)ccc3o2)c2ccccc21 | 4040 nM |
| CCCCCCCCNc1ncnc2ccccc12 | 42 nM |
| CCOC(=O)c1cnc(-n2nc(C)cc2C)nc1NC1CCCCC1 | 1750 nM |
| Cn1nc(-c2ccc(Cl)cc2)nc2c(=O)n(C)c(=O)nc1-2 | 634 nM |
| Cc1ccc(NC2=Nc3ccccc3N3C2=Nc2c(c(C)nn2-c2ccccc2)C3c2ccc(O)c(O)c2)cc1 (configuration not stated) | 9980 nM |
| O=C(c1sc2cc(C(F)(F)F)cnc2c1-c1ccccc1)N1CCOCC1 | > 40000 nM (inactive) |
| COc1ccc(NC(=O)/C(Cl)=C(/Cl)S(=O)(=O)Cc2ccccc2)cn1 | 1560 nM |
| O=C(Nc1ccc(F)cc1)c1sccc1S(=O)(=O)Cc1cccc(C(F)(F)F)c1 | > 40000 nM (inactive) |
| O=C(c1cc(NC(=O)C23CC4CC(CC(C4)C2)C3)cc(NC(=O)C23CC4CC(CC(C4)C2)C3)c1)N1CCCCC1 | 793 nM |
| O=C(Nc1ccc(F)cc1)c1cccs1 | > 40000 nM (inactive) |
| Cc1cc(/C=N/n2cnnc2)c(C)n1-c1ccc(OCc2ccc(Cl)cc2)cc1 | 362 nM |
| O=C(Nc1ccc(F)cc1)c1cc(-c2cccs2)nc2ccccc12 | > 40000 nM (inactive) |
